{
  "source": "paper PMC5327383",
  "about": "“Pneumococcal galactose catabolism is controlled by multiple regulators acting on pyruvate formate lyase” (Scientific Reports, 2017)",
  "biological_target": "CcpA (Streptococcus pneumoniae, UniProt A0A0H2ZQ65)",
  "sequence (A0A0H2ZQ65 entry or part of it)": "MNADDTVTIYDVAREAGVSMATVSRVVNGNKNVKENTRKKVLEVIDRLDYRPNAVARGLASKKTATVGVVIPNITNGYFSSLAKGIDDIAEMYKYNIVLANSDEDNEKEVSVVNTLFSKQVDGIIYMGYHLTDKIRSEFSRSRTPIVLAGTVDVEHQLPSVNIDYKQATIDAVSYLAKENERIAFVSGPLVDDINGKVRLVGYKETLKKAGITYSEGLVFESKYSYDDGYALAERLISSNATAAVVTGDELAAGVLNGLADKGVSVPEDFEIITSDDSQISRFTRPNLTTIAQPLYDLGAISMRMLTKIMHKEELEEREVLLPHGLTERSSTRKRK",
  "details": "10 mM; room temperature; raises DNA affinity; direct binding of formate not shown",
  "note": "Structures can show the parent of a compound that is named as a salt.",
  "data": [
    {"molecule": "O=CO", "note": "[sodium formate]", "values": [
      {"measurement": "EMSA with pflB promoter DNA, protein preincubated with compound", "result": "formate enhanced the binding of CcpA to PpflB"}
    ]}
  ]
}
